Test results from ChEMBL document CHEMBL4145536, “Design, synthesis and biological evaluation of novel bouchardatine analogs as potential inhibitors of adipogenesis/lipogenesis in 3T3-L1 adipocytes” (Eur J Med Chem, 2018).
Activity calls are given as the source filed them. The calls are words filed in the database; no cut-off is given here.

Columns and labels:
[1] = system: 3T3-L1; assay: Lipid lowering activity in mouse 3T3L1 cells assessed as decrease in triglyceride level at 10 uM for 6 days by oil red o-staining based microscopic assay; format: functional, cell-based
[2] = system: 3T3-L1; assay: Inhibition of cell proliferation in mouse 3T3L1 cells assessed as reduction in adipogenic cocktail-induced mitotic cell clonal expansion at 1 to 10 uM after 72 hrs by hemocytometric method; format: functional, cell-based
[3] = system: 3T3-L1; assay: Cytotoxicity against mouse 3T3L1 cells assessed as decrease in cell viability up to 10 uM measured up to 72 hrs by LDH release assay; format: cell-based; details: 3t3-l1, 72 h
[4] = species: Mus musculus; assay: Activation of AMPK pathway in mouse 3T3L1 cells assessed as reduction in C/EBPdelta protein expression at 5 uM after 4 hrs by Western blot analysis; format: cell-based
[5] = species: Mus musculus; assay: Activation of AMPK pathway in mouse 3T3L1 cells assessed as decrease in C/EBPalpha mRNA level at 1 to 10 uM measured on day 3 post treatment by RT-PCR method; format: cell-based
[6] = system: 3T3-L1; assay: Lipid lowering activity in mouse 3T3L1 cells assessed as inhibition of terminal differentiation stage by measuring decrease in triglyceride level at 5 uM treated on day 6 to 9 starting from 2 days post confluent by oil red o-staining based assay relative to control; format: functional
[7] = species: Mus musculus; assay: Induction of AMPKalpha phosphorylation at Thr172 residue in mouse 3T3L1 cells at 5 uM after 4 hrs by Western blot analysis; format: cell-based
[8] = system: 3T3-L1; assay: Cell cycle arrest in mouse 3T3L1 cells assessed as accumulation at G0/G1 phase at 5 uM after 24 hrs by propidium iodide staining based FACS analysis (reference value: 48.7%); format: functional
[9] = system: 3T3-L1; assay: Lipid lowering activity in mouse 3T3L1 cells assessed as decrease in triglyceride level at 5 uM treated on day 0 to 9 starting from 2 days post confluent by oil red o-staining based assay relative to control; format: functional; design: scale not given: the % may be the effect or the level left
[10] = species: Mus musculus; assay: Activation of AMPK pathway in mouse 3T3L1 cells assessed as induction of […] phosphorylation at Ser79 residue measured on day 6 post treatment by Western blot analysis; format: cell-based
[11] = species: Mus musculus; assay: Activation of AMPK pathway in mouse 3T3L1 cells assessed as decrease in […] mRNA level measured on day 6 post treatment by RT-PCR method; format: cell-based
[12] = system: HepG2; assay: Cytotoxicity against human HepG2 cells assessed as decrease in cell viability after 24 hrs by MTT assay; format: cell-based; details: HepG2, 24 h
[13] = species: Mus musculus; assay: Activation of AMPK pathway in mouse 3T3L1 cells assessed as decrease in SREBP-1c mRNA level at 1 to 10 uM measured on day 6 post treatment by RT-PCR method; format: cell-based
[14] = species: Mus musculus; assay: Activation of AMPK pathway in mouse 3T3L1 cells assessed as decrease in FAS mRNA level measured on day 6 post treatment by RT-PCR method; format: cell-based
[15] = system: 3T3-L1; assay: Lipid lowering activity in mouse 3T3L1 cells assessed as decrease in triglyceride level at 5 uM treated on day 0 to 6 starting from 2 days post confluent by oil red o-staining based assay relative to control; format: functional; design: scale not given: the % may be the effect or the level left
[16] = system: 3T3-L1; assay: Cytotoxicity against mouse 3T3L1 cells assessed as decrease in cell viability after 24 hrs by MTT assay; format: cell-based; details: 3T3-L1, 24 h
[17] = species: Mus musculus; assay: Induction of AMPKalpha phosphorylation at Thr172 residue in mouse 3T3L1 cells measured on day 3 post treatment by Western blot analysis; format: cell-based
[18] = species: Mus musculus; assay: Activation of AMPK pathway in mouse 3T3L1 cells assessed as reduction in C/EBPbeta protein expression at 2 mM after 4 hrs by Western blot analysis; format: cell-based
[19] = species: Mus musculus; assay: Activation of AMPK pathway in mouse 3T3L1 cells assessed as reduction in C/EBPbeta protein expression at 5 uM after 4 hrs by Western blot analysis; format: cell-based
[20] = species: Mus musculus; assay: Activation of AMPK pathway in mouse 3T3L1 cells assessed as reduction in C/EBPdelta protein expression at 2 mM after 4 hrs by Western blot analysis; format: cell-based
[21] = system: 3T3-L1; assay: Cell cycle arrest in mouse 3T3L1 cells assessed as accumulation at G0/G1 phase at 10 uM after 24 hrs by propidium iodide staining based FACS analysis (reference value: 48.7%); format: functional
[22] = species: Mus musculus; assay: Activation of AMPK pathway in mouse 3T3L1 cells assessed as decrease in SCD1 mRNA level measured on day 6 post treatment by RT-PCR method; format: cell-based
[23] = system: 3T3-L1; assay: Lipid lowering activity in mouse 3T3L1 cells assessed as inhibition of adipogenesis by measuring decrease in triglyceride level at 5 uM treated on day 0 to 3 starting from 2 days post confluent by oil red o-staining based assay relative to control; format: functional
[24] = species: Mus musculus; assay: Activation of AMPK pathway in mouse 3T3L1 cells assessed as decrease in C/EBPgamma mRNA level measured after 24 hrs by RT-PCR method; format: cell-based
[25] = system: 3T3-L1; assay: Lipid lowering activity in mouse 3T3L1 cells assessed as decrease in triglyceride level at 5 uM by oil red o-staining based assay; format: functional, cell-based; details: TDE = time-dependent effect
[26] = system: 3T3-L1; assay: Cell cycle arrest in mouse 3T3L1 cells assessed as accumulation at G0/G1 phase at 1 uM after 24 hrs by propidium iodide staining based FACS analysis (reference value: 48.7%); format: functional
[27] = system: 3T3-L1; assay: Cell cycle arrest in mouse 3T3L1 cells assessed as decrease in S-phase at 1 to 10 uM after 24 hrs by propidium iodide staining based FACS analysis; format: functional
[28] = species: Mus musculus; assay: Activation of AMPK pathway in mouse 3T3L1 cells assessed as decrease in PPARgamma mRNA level at 1 to 10 uM measured on day 3 post treatment by RT-PCR method; format: cell-based
[29] = species: Mus musculus; assay: Activation of AMPK pathway in mouse 3T3L1 cells assessed as decrease in C/EBPbeta mRNA level measured after 24 hrs by RT-PCR method; format: cell-based
[30] = system: 3T3-L1; assay: Lipid lowering activity in mouse 3T3L1 cells assessed as inhibition of lipogenesis by measuring decrease in triglyceride level at 5 uM treated on day 3 to 6 starting from 2 days post confluent by oil red o-staining based assay relative to control; format: functional
[31] = system: 3T3-L1; assay: Lipid lowering activity in mouse 3T3L1 cells assessed as decrease in triglyceride level treated 2 days post confluent for 9 days by oil red o-staining based assay; format: functional, cell-based
[32] = system: 3T3-L1; assay: Lipid lowering activity in mouse 3T3L1 cells assessed as decrease in triglyceride level at 10 uM for 6 days by oil red o-staining based assay relative to control; format: functional; design: scale not given: the % may be the effect or the level left
[33] = system: HepG2; assay: Lipid lowering activity in human HepG2 cells assessed as decrease in triglyceride level at 10 uM for 6 days in presence of oleic acid by oil red o-staining based assay relative to control; format: functional; design: scale not given: the % may be the effect or the level left
[34] = Solubility of the compound; format: physicochemical

Fc1c(-c2nc(NCCCN3CCCC3)c3ccccc3n2)[nH]c2ccccc12
Activity [1]: Active
inhibition [2]: Active
Activity [3]: Non-Toxic
Activity [4]: Active
Activity [5]: Active
inhibition at 5 µM [6]: 22.1%
Activity [7]: Active
Activity [8]: 66.1%
Activity [9]: 80.5%
Activity [10]: Active
Activity [11]: Dose-dependent effect
IC50 [12]: 25.1 µM
Activity [13]: Active
Activity [14]: Dose-dependent effect
Activity [15]: 74.2%
IC50 [16]: 37.7 µM
Activity [17]: Active
Activity [18]: Active
Activity [19]: Active
Activity [20]: Active
Activity [21]: 77.6%
Activity [22]: Dose-dependent effect
inhibition at 5 µM [23]: 71.1%
Activity [24]: Dose-dependent effect
Activity [25]: Tde
Activity [26]: 60.8%
Activity [27]: Active
Activity [28]: Active
Activity [29]: Dose-dependent effect
inhibition at 5 µM [30]: 51.6%
Activity [31]: Dose-dependent effect
EC50 [31]: 0.24 µM
Activity [32]: 79.1%
Activity [33]: 20.8%

O=Cc1c(-c2nc3ccccc3c(=O)[nH]2)[nH]c2ccccc12
Activity [1]: Active
solubility [34]: Insoluble
IC50 [12]: > 50 µM
IC50 [16]: > 50 µM
Activity [32]: 20.1%
Activity [33]: 24.1%
